Measurements from patent publication US20040132803A1, “Agent for the treatment of overactive bladder” (priority 2003, published 2004).

Tests used:
[1] = system: delayed rectifier K^+ currents; test: Delayed rectifier K^+ currents in Fast Blue-labeled capsaicin-sensitive bladder afferent neurons; assay type: cell-based, rat; conditions: 1.0 × 10^−6 mol/L
Protocol: (§1) Experiments were performed on adult female Sprague Dawley rats. First and second series of the experiments were performed, respectively, in unidentified DRG neurons and a specific population of DRG neurons innervating the urinary bladder. The population of DRG neurons that innervate the urinary bladder were labeled by retrograde axonal transport of the fluorescent dye, Fast Blue (4% w/v) (Polyloy, Gross Umstadt, Germany), injected into the wall of the bladder in halothane-anesthetized animals 7 days before the dissociation. The dye was injected with a 28 gauge needle at three to six sites on the dorsal surface of the organ (5-6 μL per site, total volume of 20-30 μL). Each injection site was washed with saline to minimize contamination of adjacent organs with the dye.
Freshly dissociated neurons from DRG were prepared from halothane-anesthetized animals. […]
Dye-labeled primary afferent neurons that innervate the urinary bladder were identified using an inverted phase-contrast microscope (Nikon, Tokyo, Japan) with fluorescent attachments (UV-1A filter; excitation wavelength, 365 nm). […] All recordings were made with an Axopatch-1D patch-clamp amplifier (Axon Instruments, Foster City, Calif.), and data were acquired and analyzed by PCLAMP software (Axon Instruments).
In voltage-clamp recordings, outward K^+ currents and inward Na^+ currents were measured. […]

spinal cord-injured rats = test: Inhibition of detrusor hyperreflexia, cystometry in spinal cord-injured rats; assay type: in vivo, rat
Description: Spinal cord injury was induced in rats.

[2] = system: delayed rectifier K^+ currents; test: Voltage-clamp outward K^+ currents at HP −20 mV in unidentified DRG neurons; assay type: cell-based, rat; conditions: for K^+ current at HP: −20 mV, relative value (before compound = 1): unidentified DRG neurons
Protocol: as §1
Freshly dissociated neurons from DRG were prepared from halothane-anesthetized animals. L6 and S1 DRG were dissected from animals and then dissociated in a shaking bath for 25 minutes at 35° C. with 5 mL DMEM (Sigma) containing 0.3 mg/mL trypsin (Type 3, Sigma), 1 mg/mL collagenase (Type 1, Sigma), and 0.1 mg/mL deoxyribonuclease (Type 4, Sigma). Trypsin inhibitor (Type 2a, Sigma) was then added thereto to neutralize the activity of trypsin. Individual DRG cell bodies were isolated by trituration and then plated on a poly-L-lysine-coated 35 mm Petri dishes.
Dye-labeled primary afferent neurons that innervate the urinary bladder were identified using an inverted phase-contrast microscope (Nikon, Tokyo, Japan) with fluorescent attachments (UV-1A filter; excitation wavelength, 365 nm). Gigaohm-seal whole-cell recordings were performed at room temperature (20-22° C.) on each labeled neuron in a culture dish that usually contained three to seven labeled cells among a few hundred unlabeled neurons. The internal solution contained (in mmol/L): KCl 140, CaCl2 1, MgCl2 2, EGTA 11, HEPES 10, Mg-ATP 2, and Tris-GTP 0.4 adjusted to pH 7.4 with KOH. Patch electrodes had resistances of 1-4 MΩ when filled with the internal solution. Neurons were superfused at a flow rate of 1.5 mL/minutes with an external solution containing (in mmol/L): NaCl 150, KCl 5, CaCl2 2.5, MgCl2 1, HEPES 10, and D-glucose 10, adjusted to pH 7.4 with NaOH. All recordings were made with an Axopatch-1D patch-clamp amplifier (Axon Instruments, Foster City, Calif.), and data were acquired and analyzed by PCLAMP software (Axon Instruments).
In voltage-clamp recordings, outward K^+ currents and inward Na^+ currents were measured. For the isolation of K^+ currents, the external solution was changed to one containing (in mmol/L): choline-Cl 150, KOH 5, CaCl2 0.03, HEPES 10, Mg(OH)2 3, and D-glucose 10, adjusted to pH 7.4 with HCl.
In first series of experiments using unidentified DRG neurons, outward K^+ currents were evoked by voltage steps to +60 mV, 800 ms long from a holding potentials of −90 mV, this was followed by a 1-second conditioning prepulse to −20 mV followed by a second pulse to +60 mV, identical to the first in the sequence. In the second series of experiments using Fast Blue-labeled bladder afferent neurons, slowly-inactivating A-type K^+ currents were isolated by. subtraction of outward K^+ currents activated from a holding potential of −40 mV (on the condition of inactivation of the majority of slowly-inactivating A-type K^+ currents) from those activated from a holding potential of −120 mV (on the condition of full activation of slowly-inactivating A-type K^+ currents). A compound was added cumulatively, starting with a lower concentration. Currents were measured at the maximum (peak) and normalized to control (before addition of the compound).

[3] = 0.001 mg/kg p.o., after 3 hours
[4] = 0.001 mg/kg p.o., after 5 hours

SMILES: C[C@](O)(C(=O)Nc1cccc2c1C(=O)c1sccc1CS2(=O)=O)C(F)(F)F [Compound 1, (S)-(+)-N-(5,5-dioxido-10-oxo-4,10-dihydrothieno[3,2-c][l]benzothiepin-9-yl)-3,3,3-trifluoro-2-hydroxy-2-methylpropanamide]
- Delayed rectifier HP: −40 mV, normalized to control [1]: 1.10 ± 0.01
- effect on micturition (physiological) contraction (spinal cord-injured rats): had no influence
- effect on pre-micturition contraction (detrusor overactivity) (spinal cord-injured rats): inhibited
- micturition contraction, relative to before administration = 100 (spinal cord-injured rats; 0.001 mg/kg p.o., after 1 hour): 106.5 ± 11.3%
- pre-micturition contraction, relative to before administration = 100 (spinal cord-injured rats; 0.001 mg/kg p.o., after 1 hour): 83.5 ± 6.8%
- micturition contraction, relative to before administration = 100 (spinal cord-injured rats; [3]): 101.7 ± 9.5%
- pre-micturition contraction, relative to before administration = 100 (spinal cord-injured rats; [3]): 95.4 ± 12.0%
- micturition contraction, relative to before administration = 100 (spinal cord-injured rats; [4]): 103.1 ± 6.5%
- pre-micturition contraction, relative to before administration = 100 (spinal cord-injured rats; [4]): 105.5 ± 20.8%
- micturition contraction, relative to before administration = 100 (spinal cord-injured rats; 0.01 mg/kg p.o., after 1 hour): 114.4 ± 9.5%
- pre-micturition contraction, relative to before administration = 100 (spinal cord-injured rats; 0.01 mg/kg p.o., after 1 hour): 59.6 ± 8.1 %
- micturition contraction, relative to before administration = 100 (spinal cord-injured rats; 0.01 mg/kg p.o., after 3 hours): 117.6 ± 13.9%
- pre-micturition contraction, relative to before administration = 100 (spinal cord-injured rats; 0.01 mg/kg p.o., after 3 hours): 51.2 ± 6.7 %
- micturition contraction, relative to before administration = 100 (spinal cord-injured rats; 0.01 mg/kg p.o., after 5 hours): 117.6 ± 12.7%
- pre-micturition contraction, relative to before administration = 100 (spinal cord-injured rats; 0.01 mg/kg p.o., after 5 hours): 42.2 ± 7.2 %
- micturition contraction, relative to before administration = 100 (spinal cord-injured rats; 0.1 mg/kg p.o., after 1 hour): 109.3 ± 6.3%
- pre-micturition contraction, relative to before administration = 100 (spinal cord-injured rats; 0.1 mg/kg p.o., after 1 hour): 52.3 ± 9.1 %
- micturition contraction, relative to before administration = 100 (spinal cord-injured rats; 0.1 mg/kg p.o., after 3 hours): 110.2 ± 5.4%
- pre-micturition contraction, relative to before administration = 100 (spinal cord-injured rats; 0.1 mg/kg p.o., after 3 hours): 33.3 ± 6.3 %
- micturition contraction, relative to before administration = 100 (spinal cord-injured rats; 0.1 mg/kg p.o., after 5 hours): 112.4 ± 7.0%
- pre-micturition contraction, relative to before administration = 100 (spinal cord-injured rats; 0.1 mg/kg p.o., after 5 hours): 28.5 ± 6.2 %
- K^+ current at HP: −20 mV, relative value ([2]; 1.0 × 10^−5 mol/L, in the presence of 5 μmol/L verapamil): 1.00 ± 0.02
- K^+ current at HP: −20 mV, relative value ([2]; 1.0 × 10^−5 mol/L, in the presence of 20 mmol/L tetraethylammonium): 1.01 ± 0.02
- K^+ current at HP: −20 mV, relative value (before compound = 1) ([2]; 1.0 × 10^−5 mol/L): 0.88 ± 0.07
- K^+ current at HP: −20 mV, relative value ([2]; 1.0 × 10^−6 mol/L, in the presence of 5 μmol/L verapamil): 1.00 ± 0.01
- K^+ current at HP: −20 mV, relative value ([2]; 1.0 × 10^−6 mol/L, in the presence of 20 mmol/L tetraethylammonium): 1.00 ± 0.00
- K^+ current at HP: −20 mV, relative value (before compound = 1) ([2]; 1.0 × 10^−6 mol/L): 1.00 ± 0.02
- K^+ current at HP: −20 mV, relative value ([2]; 1.0 × 10^−7 mol/L, in the presence of 5 μmol/L verapamil): 1.00 ± 0.01
- K^+ current at HP: −20 mV, relative value ([2]; 1.0 × 10^−7 mol/L, in the presence of 20 mmol/L tetraethylammonium): 0.99 ± 0.02
- K^+ current at HP: −20 mV, relative value (before compound = 1) ([2]; 1.0 × 10^−7 mol/L): 1.02 ± 0.01
- K^+ current at HP: −20 mV, relative value (before compound = 1) ([2]; 1.0 × 10^−8 mol/L): 0.98 ± 0.04
- K^+ current at HP: −20 mV, relative value (before compound = 1) ([2]; 2.5 × 10^−8 mol/L): 1.01 ± 0.03
- K^+ current at HP: −20 mV, relative value ([2]; 5.0 × 10^−4 mol/L, in the presence of 5 μmol/L verapamil): 0.83 ± 0.06
- K^+ current at HP: −20 mV, relative value ([2]; 5.0 × 10^−4 mol/L, in the presence of 20 mmol/L tetraethylammonium): 0.25 ± 0.04
- K^+ current at HP: −20 mV, relative value ([2]; 5.0 × 10^−4 mol/L, in the presence of 60 mmol/L tetraethylammonium): 0.54 ± 0.02
- K^+ current at HP: −20 mV, relative value ([2]; 5.0 × 10^−5 mol/L, in the presence of 5 μmol/L verapamil): 0.98 ± 0.01
- K^+ current at HP: −20 mV, relative value ([2]; 5.0 × 10^−5 mol/L, in the presence of 20 mmol/L tetraethylammonium): 0.84 ± 0.06
- K^+ current at HP: −20 mV, relative value ([2]; 5.0 × 10^−5 mol/L, in the presence of 60 mmol/L tetraethylammonium): 0.95 ± 0.03
- K^+ current at HP: −20 mV, relative value (before compound = 1) ([2]; 5.0 × 10^−5 mol/L): 0.81 ± 0.08
- K^+ current at HP: −20 mV, relative value ([2]; 5.0 × 10^−6 mol/L, in the presence of 5 μmol/L verapamil): 1.01 ± 0.01
- K^+ current at HP: −20 mV, relative value ([2]; 5.0 × 10^−6 mol/L, in the presence of 20 mmol/L tetraethylammonium): 0.98 ± 0.01
- K^+ current at HP: −20 mV, relative value ([2]; 5.0 × 10^−6 mol/L, in the presence of 60 mmol/L tetraethylammonium): 0.97 ± 0.02
- K^+ current at HP: −20 mV, relative value ([2]; 5.0 × 10^−7 mol/L, in the presence of 5 μmol/L verapamil): 1.00 ± 0.01
- K^+ current at HP: −20 mV, relative value ([2]; 5.0 × 10^−7 mol/L, in the presence of 20 mmol/L tetraethylammonium): 1.01 ± 0.01
- K^+ current at HP: −20 mV, relative value ([2]; 5.0 × 10^−7 mol/L, in the presence of 60 mmol/L tetraethylammonium): 0.97 ± 0.03
- K^+ current at HP: −20 mV, relative value (before compound = 1) ([2]; 5.0 × 10^−7 mol/L): 1.01 ± 0.02
- K^+ current at HP: −20 mV, relative value ([2]; 5.0 × 10^−8 mol/L, in the presence of 5 μmol/L verapamil): 1.00 ± 0.00
- K^+ current at HP: −20 mV, relative value ([2]; 5.0 × 10^−8 mol/L, in the presence of 20 mmol/L tetraethylammonium): 0.99 ± 0.01
- K^+ current at HP: −20 mV, relative value ([2]; 5.0 × 10^−8 mol/L, in the presence of 60 mmol/L tetraethylammonium): 1.00 ± 0.01
- K^+ current at HP: −20 mV, relative value (before compound = 1) ([2]; 5.0 × 10^−8 mol/L): 1.00 ± 0.01
- K^+ current at HP: −20 mV, relative value ([2]; 5.0 × 10^−9 mol/L, in the presence of 20 mmol/L tetraethylammonium): 0.99 ± 0.00
- K^+ current at HP: −20 mV, relative value (before compound = 1) ([2]; 5.0 × 10^−9 mol/L): 0.98 ± 0.02
- influence upon delayed rectifier K^+ currents ([2]; unidentified DRG cells, HP −20 mV): does not have no influences (little influences)
